According to PubChem BioAssay (NCI):
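Method: 48-hour compound exposure of cells in 96-well plates, five concentrations, linear interpolation of endpoints. TGI denotes the concentration required for complete inhibition of growth.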

Legend:
Experiment in all cases: NCI anticancer screen, dose series, 48 h
786-0 renal = test system: 786-0 renal
A498 renal = test system: A498 renal
A549 NSCLC = test system: A549 NSCLC
ACHN renal = test system: ACHN renal
BT-549 breast = test system: BT-549 breast
CAKI-1 renal = test system: CAKI-1 renal
COLO 205 colon = test system: COLO 205 colon
DU-145 prostate = test system: DU-145 prostate
EKVX NSCLC = test system: EKVX NSCLC
HCC-2998 colon = test system: HCC-2998 colon
HCT-116 colon = test system: HCT-116 colon
HCT-15 colon = test system: HCT-15 colon
HOP-62 NSCLC = test system: HOP-62 NSCLC
HOP-92 NSCLC = test system: HOP-92 NSCLC
HS 578T breast = test system: HS 578T breast
HT29 colon = test system: HT29 colon
IGROV1 ovarian = test system: IGROV1 ovarian
K-562 leukemia = test system: K-562 leukemia
KM12 colon = test system: KM12 colon
LOX IMVI melanoma = test system: LOX IMVI melanoma
M14 melanoma = test system: M14 melanoma
MALME-3M melanoma = test system: MALME-3M melanoma
MCF7 breast = test system: MCF7 breast
MDA-MB-231 breast = test system: MDA-MB-231 breast
MDA-MB-435 = test system: MDA-MB-435
MDA-N = test system: MDA-N
MOLT-4 leukemia = test system: MOLT-4 leukemia
NCI-H226 lung = test system: NCI-H226 lung
NCI-H23 lung = test system: NCI-H23 lung
NCI-H460 lung = test system: NCI-H460 lung
NCI-H522 lung = test system: NCI-H522 lung
NCI/ADR-RES ovarian = test system: NCI/ADR-RES ovarian
OVCAR-3 ovarian = test system: OVCAR-3 ovarian
OVCAR-4 ovarian = test system: OVCAR-4 ovarian
OVCAR-5 ovarian = test system: OVCAR-5 ovarian
OVCAR-8 ovarian = test system: OVCAR-8 ovarian
PC-3 prostate = test system: PC-3 prostate
RPMI-8226 leukemia = test system: RPMI-8226 leukemia
RXF 393 renal = test system: RXF 393 renal
SF-268 CNS = test system: SF-268 CNS
SF-295 CNS = test system: SF-295 CNS
SF-539 CNS = test system: SF-539 CNS
SK-MEL-2 melanoma = test system: SK-MEL-2 melanoma
SK-MEL-28 melanoma = test system: SK-MEL-28 melanoma
SK-MEL-5 melanoma = test system: SK-MEL-5 melanoma
SK-OV-3 ovarian = test system: SK-OV-3 ovarian
SN12C renal = test system: SN12C renal
SNB-19 CNS = test system: SNB-19 CNS
SNB-75 CNS = test system: SNB-75 CNS
SR leukemia = test system: SR leukemia
SW-620 colon = test system: SW-620 colon
T-47D breast = test system: T-47D breast
TK-10 renal = test system: TK-10 renal
U251 CNS = test system: U251 CNS
UACC-257 melanoma = test system: UACC-257 melanoma
UACC-62 melanoma = test system: UACC-62 melanoma
UO-31 renal = test system: UO-31 renal
CCRF-CEM leukemia = test system: CCRF-CEM leukemia
DLD-1 colon = test system: DLD-1 colon
DMS 114 small cell lung = test system: DMS 114 small cell lung
DMS 273 small cell lung = test system: DMS 273 small cell lung
HL-60(TB) leukemia = test system: HL-60(TB) leukemia
HOP-18 NSCLC = test system: HOP-18 NSCLC
LXFL 529 NSCLC = test system: LXFL 529 NSCLC
M19-MEL melanoma = test system: M19-MEL melanoma
SNB-78 CNS = test system: SNB-78 CNS

With `COc1ccc(C(=O)O[C@H]2CC[C@@]3(C)[C@@H]4CC[C@H]5[C@]6(O)C[C@H](O)[C@@]7(O)[C@@H](CN8C[C@@H](C)CC[C@H]8[C@@]7(C)O)[C@]6(O)C[C@@]53OC24O)cc1OC` as the compound, how does the TGI (786-0 renal) read?
Its TGI is greater than 100 µM.

What about the TGI (A498 renal) of the same compound?
Its TGI is greater than 100 µM.

What about the TGI (A549 NSCLC) of the same compound?
The TGI was greater than 100 µM.

And the TGI (ACHN renal)?
The TGI was greater than 100 µM.

And the TGI (BT-549 breast)?
The TGI was greater than 100 µM.

And the TGI (CAKI-1 renal)?
The TGI was greater than 100 µM.

What about the TGI (COLO 205 colon) of the same compound?
Its TGI is greater than 100 µM.

What about the TGI (DU-145 prostate) of the same compound?
The TGI was greater than 100 µM.

And the TGI (EKVX NSCLC)?
Its TGI is greater than 100 µM.

What about the TGI (HCC-2998 colon) of the same compound?
The TGI was greater than 100 µM.

And the TGI (HCT-116 colon)?
The TGI was greater than 100 µM.

What about the TGI (HCT-15 colon) of the same compound?
Its TGI is greater than 100 µM.

And the TGI (HOP-62 NSCLC)?
The TGI was greater than 100 µM.

What about the TGI (HOP-92 NSCLC) of the same compound?
The TGI was greater than 100 µM.

What about the TGI (HS 578T breast) of the same compound?
Its TGI is greater than 100 µM.

What about the TGI (HT29 colon) of the same compound?
Its TGI is greater than 100 µM.

What about the TGI (IGROV1 ovarian) of the same compound?
Its TGI is greater than 100 µM.

What about the TGI (K-562 leukemia) of the same compound?
The TGI was greater than 100 µM.

What about the TGI (KM12 colon) of the same compound?
The TGI was greater than 100 µM.

And the TGI (LOX IMVI melanoma)?
Its TGI is greater than 100 µM.

What about the TGI (M14 melanoma) of the same compound?
Its TGI is greater than 100 µM.

And the TGI (MALME-3M melanoma)?
The TGI was greater than 100 µM.

And the TGI (MCF7 breast)?
The TGI was greater than 100 µM.

And the TGI (MDA-MB-231 breast)?
Its TGI is greater than 100 µM.

And the TGI (MDA-MB-435)?
The TGI was greater than 100 µM.

What about the TGI (MDA-N) of the same compound?
The TGI was greater than 100 µM.

And the TGI (MOLT-4 leukemia)?
Its TGI is greater than 100 µM.

What about the TGI (NCI-H226 lung) of the same compound?
The TGI was greater than 100 µM.

And the TGI (NCI-H23 lung)?
The TGI was greater than 100 µM.

What about the TGI (NCI-H460 lung) of the same compound?
Its TGI is greater than 100 µM.

What about the TGI (NCI-H522 lung) of the same compound?
The TGI was greater than 100 µM.

And the TGI (NCI/ADR-RES ovarian)?
The TGI was greater than 100 µM.

And the TGI (OVCAR-3 ovarian)?
Its TGI is greater than 100 µM.

And the TGI (OVCAR-4 ovarian)?
Its TGI is greater than 100 µM.

What about the TGI (OVCAR-5 ovarian) of the same compound?
The TGI was greater than 100 µM.

What about the TGI (OVCAR-8 ovarian) of the same compound?
The TGI was greater than 100 µM.

What about the TGI (PC-3 prostate) of the same compound?
Its TGI is greater than 100 µM.

What about the TGI (RPMI-8226 leukemia) of the same compound?
The TGI was greater than 100 µM.

What about the TGI (RXF 393 renal) of the same compound?
Its TGI is greater than 100 µM.

And the TGI (SF-268 CNS)?
Its TGI is greater than 100 µM.

And the TGI (SF-295 CNS)?
The TGI was greater than 100 µM.

And the TGI (SF-539 CNS)?
Its TGI is greater than 100 µM.

What about the TGI (SK-MEL-2 melanoma) of the same compound?
The TGI was greater than 100 µM.

What about the TGI (SK-MEL-28 melanoma) of the same compound?
The TGI was greater than 100 µM.

What about the TGI (SK-MEL-5 melanoma) of the same compound?
Its TGI is greater than 100 µM.

And the TGI (SK-OV-3 ovarian)?
The TGI was greater than 100 µM.

And the TGI (SN12C renal)?
Its TGI is greater than 100 µM.

And the TGI (SNB-19 CNS)?
Its TGI is greater than 100 µM.

And the TGI (SNB-75 CNS)?
Its TGI is greater than 100 µM.

What about the TGI (SR leukemia) of the same compound?
Its TGI is greater than 100 µM.

And the TGI (SW-620 colon)?
The TGI was greater than 100 µM.

And the TGI (T-47D breast)?
The TGI was greater than 100 µM.

And the TGI (TK-10 renal)?
Its TGI is greater than 100 µM.

What about the TGI (U251 CNS) of the same compound?
Its TGI is greater than 100 µM.

And the TGI (UACC-257 melanoma)?
Its TGI is greater than 100 µM.

And the TGI (UACC-62 melanoma)?
The TGI was greater than 100 µM.

And the TGI (UO-31 renal)?
Its TGI is greater than 100 µM.

What does the source list for `O=c1c2cc(Br)cc(Br)c2nc(CCCl)n1-c1ccc(O)c([N+](=O)[O-])c1`?
TGI (786-0 renal): 32.4 µM; TGI (A498 renal): 52 µM; TGI (A549 NSCLC): 31.7 µM; TGI (ACHN renal): 33.9 µM; TGI (CCRF-CEM leukemia): 43.7 µM; TGI (COLO 205 colon): 36.3 µM; TGI (DLD-1 colon): 36.6 µM; TGI (DMS 114 small cell lung): 36.3 µM; TGI (DMS 273 small cell lung): 36.9 µM; TGI (EKVX NSCLC): 75.8 µM; TGI (HCC-2998 colon): 32.4 µM; TGI (HCT-116 colon): 28.1 µM; TGI (HCT-15 colon): 38.1 µM; TGI (HL-60(TB) leukemia): 42.9 µM; TGI (HOP-18 NSCLC): 30.4 µM; TGI (HOP-62 NSCLC): 33 µM; TGI (HOP-92 NSCLC): 52.2 µM; TGI (HT29 colon): 41.1 µM; TGI (IGROV1 ovarian): 40.4 µM; TGI (K-562 leukemia): 61.9 µM; TGI (KM12 colon): 33.7 µM; TGI (LXFL 529 NSCLC): 30.3 µM; TGI (M14 melanoma): 31.9 µM; TGI (M19-MEL melanoma): 29.8 µM; TGI (MALME-3M melanoma): 36.4 µM; TGI (MOLT-4 leukemia): 50.5 µM; TGI (NCI-H226 lung): 37.1 µM; TGI (NCI-H23 lung): 46.5 µM; TGI (NCI-H460 lung): 42.1 µM; TGI (NCI-H522 lung): 23.5 µM; TGI (OVCAR-3 ovarian): 33.7 µM; TGI (OVCAR-4 ovarian): 29 µM; TGI (OVCAR-5 ovarian): 33.1 µM; TGI (OVCAR-8 ovarian): 41.6 µM; TGI (RPMI-8226 leukemia): 56.1 µM; TGI (SF-268 CNS): 37.9 µM; TGI (SF-295 CNS): 45 µM; TGI (SF-539 CNS): 37.1 µM; TGI (SK-MEL-2 melanoma): 34.6 µM; TGI (SK-MEL-28 melanoma): 35.4 µM; TGI (SK-MEL-5 melanoma): 35.6 µM; TGI (SK-OV-3 ovarian): 29.5 µM; TGI (SN12C renal): 31.8 µM; TGI (SNB-19 CNS): 38.2 µM; TGI (SNB-75 CNS): 39.2 µM; TGI (SNB-78 CNS): 62.3 µM; TGI (SR leukemia): 65.4 µM; TGI (SW-620 colon): 36.2 µM; TGI (TK-10 renal): 32.7 µM; TGI (U251 CNS): 32.9 µM; TGI (UACC-257 melanoma): 29.4 µM; TGI (UACC-62 melanoma): 47.3 µM; TGI (UO-31 renal): 33.9 µM
